In patent USRE44543E1, “Naphthalenic compounds as termite bait toxicants” (priority 2002, dated 2013):

What was measured:
[1] = test system: C. formosanus; conditions: low toxicity baits; cited from earlier work
[2] = test system: Reticulitermes spp.; conditions: low toxicity baits; cited from earlier work
[3] = test system: termites; assay: Copper naphthenate laboratory study, ARS bait matrix in foraging boxes; assay type: in vivo, Coptotermes formosanus
Procedure: (§1) For bait matrices with a final concentrations of NHA sodium salt of either 250 ppm or 500 ppm, the following procedure was used. A total of 25 mg or 50 mg, respectively of the NHA sodium salt was weighed using a Mettler balance. The NHA sodium salt complex was placed into a 50 ml sterile screw cap conical tube (#62.547.004; Sarstedt, Newton, N.C.) and dissolved with 40 ml nutritive solution described in Example 2 of U.S. patent application Ser. No. 09/294,499 filed Apr. 20, 1999, hereby incorporated by reference. Under a laminar flow hood, this product was mixed with 27 ml more of sterile nutritional supplement in a 250 ml sterile glass bottle (prepared as reported by M. G. Rojas and J. A. Morales-Ramos, April 2001, “Bait matrix for delivery of chitin synthesis inhibitors to the Formosan subterranean termite [Isoptera: Rhinotermitidae],” J. Econ. Entomol. 94(2) :506-510) hereby incorporated by reference. The bottle was tightly closed with a screw cap and manually shaken for 2 minutes. The mixture was added to 33 g of sterile cellulose as reported by Rojas and Morales-Ramos (2001) supra. The mixture was manually homogenized using a stainless steel spatula. To encase the bait matrix, tubes made of fibrous casing material (#124B; L.E.M. Products, Inc., Miamitown, Ohio) were cut into 150 mm long portions as reported by Rojas and Morales-Ramos (2001) supra. Fifty grams of bait matrix containing NHA sodium salt was compacted into one end of the inlet tube, and the open end and of the inlet tube was closed with a rubber band. The bait casing was placed inside of the foraging box adjacent to a 10 g piece of pine wood, taking care that it was partially covered with sand. Control bait matrix was prepared minus NHA, and presented in the same way as the treatment matrix to Formosan termites taken from three different colonies, with two boxes per locality totaling six boxes of 2500 termites per treatment. (Rojas and Morales-Ramos [2001] supra). All the experimental boxes were maintained under dark conditions at 27±1° C., and 90±2% relative humidity. Observations were done every 72 hours until all the termites died. The time to reach 100% mortality was measured and recorded. Mean comparisons among treatments and control were conducted.
Copper naphthenate (Product No. PS-2028, Chem Service, West Chester, Pa.) was dissolved in 90% warm ethanol at 3 different concentrations of 50, 100 and 200 ppm. The ethanol solution was mixed with the liquid part of the ARS bait matrix (see Example 2) and bait was prepared and presented to the termites as above in Example 1 having 4 repetitions per dose and a control. It was observed that at 50 ppm of chemical, all termites in 50% of the boxes died at about 8 weeks; and termites in 75% of the boxes died at about 10 weeks; at 100 ppm all termites died in the boxes at 8 weeks, and at 200 ppm all termites died in all tested boxes at 8 weeks. All termites in the treatments were dead by week 12.

[4] = test system: termites; conditions: Grace et al. 1993; cited from earlier work
[5] = test system: Formosan termites; assay: Foraging box bait matrix bioassay, NHA sodium salt (Example 1); assay type: in vivo, Coptotermes formosanus; conditions: 6 boxes of 2500 termite workers
Procedure: as §1

[6] = test system: C. formosanus; assay: ARS bait matrix bioassay with NHA sodium salt, protocol of Example 1 (Example 2); assay type: in vivo, Coptotermes formosanus
Procedure: as §1
N-hydroxynaphthyalimide (NHA) which is commercially available as pure chemical, is dissolved in distilled water using a sterile container; At concentrations of 500 ppm, NHA is effective as bait active ingredient taking a mean time to kill C. formosanus in 2½ months in lab conditions. […]

O=C(NC(=O)c1c(F)cccc1F)Nc1cc(Cl)c(OC(F)(F)C(F)F)c(Cl)c1 [hexaflumuron]
suppressing colonies [1]: particularly effective | suppressing colonies [2]: particularly effective

O=C(NC(=O)c1c(F)cccc1F)Nc1ccc(Cl)cc1 [diflubenzuron]
suppressing colonies [1]: particularly effective | suppressing colonies [2]: particularly effective

Copper naphthenate
week by which all termites in the treatments were dead ([3]; 50, 100 and 200 ppm): ≤ 12 week | Percent colonies of 2500 termite workers alive ([3]; 50 ppm, 8 wks after treatment): 50% | Percent colonies of 2500 termite workers alive ([3]; 50 ppm, 10 wks after treatment): 25% | Percent colonies of 2500 termite workers alive ([3]; 50 ppm, 12 wks after treatment): 0% | boxes in which all termites died ([3]; 50 ppm, at about 8 weeks): 50% | boxes in which all termites died ([3]; 50 ppm, at about 10 weeks): 75% | time at which all termites died in the boxes ([3]; 100 ppm): 8 weeks | Percent colonies of 2500 termite workers alive ([3]; 100 ppm, 8 wks after treatment): 0% | Percent colonies of 2500 termite workers alive ([3]; 100 ppm, 10 wks after treatment): 0% | Percent colonies of 2500 termite workers alive ([3]; 100 ppm, 12 wks after treatment): 0% | time at which all termites died in all tested boxes ([3]; 200 ppm): 8 weeks | acceptance of the bait and time to kill ([3]; 200 ppm dose): great variability | Percent colonies of 2500 termite workers alive ([3]; 200 ppm, 8 wks after treatment): 0% | Percent colonies of 2500 termite workers alive ([3]; 200 ppm, 10 wks after treatment): 0% | Percent colonies of 2500 termite workers alive ([3]; 200 ppm, 12 wks after treatment): 0% | repellence to termites [4]: highly repellent | toxicity to termites [4]: toxic

O=C1c2cccc3cccc(c23)C(=O)N1[O-].[Na+] [NHA-sodium salt, N-hydroxynaphthyalimide Sodium Salt]
Colonies Alive ([5]; 250 ppm in bait matrix, 1 Month of feeding): 4 | Colonies Alive ([5]; 250 ppm in bait matrix, 2 Months of feeding): 3 | Colonies Alive ([5]; 250 ppm in bait matrix, 2½ Months of feeding): 0 | Colonies Alive ([5]; 500 ppm in bait matrix, 1 Month of feeding): 3 | Colonies Alive ([5]; 500 ppm in bait matrix, 2 Months of feeding): 1 | Colonies Alive ([5]; 500 ppm in bait matrix, 2½ Months of feeding): 0 | repellence to the termites ([6]; 500 ppm): without any signs of repellence | time to formosan termite mortality ([6]; 500 ppm, preliminary results, dose range 50, 250, 500 ppm): within about two months | dose at which repellence was observed ([6]; in vivo): higher than 1500 ppm
